Key:
POAN = assay: Herbicidal activity on grasses, post-emergence; type: in vivo, Poa annua; conditions: no safener, 4-leaf stage
Method: (§1) Various crop plants are grown in plastic pots with a diameter of 9 cm in a glasshouse to the stated stage and then treated with the particular herbicide or with a mixture of the herbicide and the safener by the post-emergence method. This entails the herbicide of the formula (A) and the compounds of the formula (B) being applied in the form of aqueous suspensions or emulsions with a water application rate which converts to 300 l/ha. 4 weeks after the treatment, the plants are assessed visually for every type of damage by the applied herbicides, taking particular account of the extent of persistent growth inhibition. The evaluation takes place in percentages (scale from 0 to 100%) compared with untreated controls.

ALMY = assay: Herbicidal activity on grasses, post-emergence; type: in vivo, Alopecurus myosuroides; conditions: no safener, 4-leaf stage
Method: as §1

Barley = assay: Phytotoxicity of herbicide/safener combinations in cereals, glasshouse post-emergence; type: in vivo; conditions: no safener, 4 weeks after treatment
Method: as §1

Wheat = assay: as above; type: in vivo; conditions: no safener, 4 weeks after treatment
Method: as §1

APSP = assay: Herbicidal activity on grasses, post-emergence; type: in vivo, Apera spica-venti; conditions: no safener, 4-leaf stage
Method: as §1

AVFA = assay: Herbicidal activity on grasses, post-emergence; type: in vivo, Avena fatua; conditions: no safener, 4-leaf stage
Method: as §1

Structure (SMILES)	% effect on POAN (POAN; dose A 6 g AS/ha) [%]	% effect on POAN (POAN; dose A 12 g AS/ha) [%]	% effect on POAN (POAN; dose A 25 g AS/ha) [%]	% effect on ALMY (ALMY; dose A 6 g AS/ha) [%]	% effect on ALMY (ALMY; dose A 12 g AS/ha) [%]	% effect on ALMY (ALMY; dose A 25 g AS/ha) [%]	Phytotoxicity Barley (Barley; dose A 6 g AS/ha) [%]	Phytotoxicity Barley (Barley; dose A 12 g AS/ha) [%]	Phytotoxicity Barley (Barley; dose A 25 g AS/ha) [%]	Phytotoxicity Wheat (Wheat; dose A 6 g AS/ha) [%]	Phytotoxicity Wheat (Wheat; dose A 12 g AS/ha) [%]	Phytotoxicity Wheat (Wheat; dose A 25 g AS/ha) [%]	% effect on APSP (APSP; dose A 6 g AS/ha) [%]	% effect on APSP (APSP; dose A 12 g AS/ha) [%]	% effect on APSP (APSP; dose A 25 g AS/ha) [%]	% effect on AVFA (AVFA; dose A 6 g AS/ha) [%]	% effect on AVFA (AVFA; dose A 12 g AS/ha) [%]	% effect on AVFA (AVFA; dose A 25 g AS/ha) [%]	Phytotoxicity Barley (Barley; dose A 20 g AS/ha) [%]	Phytotoxicity Wheat (Wheat; dose A 20 g AS/ha) [%]	also measured
COC(=O)c1ccc(CN(C)S(C)(=O)=O)cc1S(=O)(=O)NC(=O)Nc1nc(OC)cc(OC)n1 [A12]	85	92	99	95	98	99	8	15	25	5	10	10	85	95	98	75	85	90	–	–	–
COC(=O)c1ccc(N(C)C(=O)C(C)C)cc1S(=O)(=O)NC(=O)Nc1nc(OC)cc(OC)n1.[Na] [A5, N-(4,6-Dimethoxypyrimidin-2-ylaminocarbonyl)-2-methoxycarbonyl-5-(N-isopropionylmethylamino)benzenesulfonamide sodium salt]	–	–	–	–	–	–	–	–	–	–	–	–	–	–	–	–	–	–	25	5	% effect on POAN (POAN; dose A 10 g AS/ha): 98%; % effect on POAN (POAN; dose A 20 g AS/ha): 100%; % effect on POAN (POAN; dose A 40 g AS/ha): 100%; % effect on ALMY (ALMY; dose A 10 g AS/ha): 95%; % effect on ALMY (ALMY; dose A 20 g AS/ha): 99%; % effect on ALMY (ALMY; dose A 40 g AS/ha): 100%; Phytotoxicity Barley (Barley; dose A 40 g AS/ha): 50%; Phytotoxicity Wheat (Wheat; dose A 40 g AS/ha): 20%; % effect on APSP (APSP; dose A 10 g AS/ha): 98%; % effect on APSP (APSP; dose A 20 g AS/ha): 100%; % effect on APSP (APSP; dose A 40 g AS/ha): 100%; % effect on AVFA (AVFA; dose A 10 g AS/ha): 85%; % effect on AVFA (AVFA; dose A 20 g AS/ha): 99%; % effect on AVFA (AVFA; dose A 40 g AS/ha): 100%
COC(=O)NCc1ccc(C(=O)OC)c(S(=O)(=O)NC(=O)Nc2nc(OC)cc(OC)n2)c1.[Na] [A11]	90	100	100	95	98	100	10	25	45	5	20	45	85	95	100	70	90	95	–	–	–
COC(=O)NCc1ccc(C(=O)OC)c(S(=O)(=O)NC(=O)Nc2nc(OC)cc(OC)n2)c1.[Na] [A6, N-(4,6-Dimethoxypyrimidin-2-ylaminocarbonyl)-2-methoxycarbonyl-5-(N-methoxycarbonylaminomethyl)benzenesulfonamide sodium salt]	–	–	–	–	–	–	–	–	–	–	–	–	–	–	–	–	–	–	30	15	% effect on POAN (POAN; dose A 10 g AS/ha): 99%; % effect on POAN (POAN; dose A 20 g AS/ha): 100%; % effect on POAN (POAN; dose A 40 g AS/ha): 100%; % effect on ALMY (ALMY; dose A 10 g AS/ha): 99%; % effect on ALMY (ALMY; dose A 20 g AS/ha): 100%; % effect on ALMY (ALMY; dose A 40 g AS/ha): 100%; Phytotoxicity Barley (Barley; dose A 40 g AS/ha): 85%; Phytotoxicity Wheat (Wheat; dose A 40 g AS/ha): 40%; % effect on APSP (APSP; dose A 10 g AS/ha): 99%; % effect on APSP (APSP; dose A 20 g AS/ha): 100%; % effect on APSP (APSP; dose A 40 g AS/ha): 100%; % effect on AVFA (AVFA; dose A 10 g AS/ha): 80%; % effect on AVFA (AVFA; dose A 20 g AS/ha): 90%; % effect on AVFA (AVFA; dose A 40 g AS/ha): 100%
COC(=O)c1ccc(NC(C)=O)cc1S(=O)(=O)NC(=O)Nc1nc(OC)cc(OC)n1.[Na] [A3, N-(4,6-Dimethoxypyrimidin-2-ylaminocarbonyl)-2-methoxycarbonyl-5-acetylaminobenzenesulfonamide sodium salt]	–	–	–	–	–	–	–	–	–	–	–	–	–	–	–	–	–	–	95	65	Phytotoxicity Barley (Barley; dose A 10 g AS/ha): 60%; Phytotoxicity Wheat (Wheat; dose A 10 g AS/ha): 30%
COC(=O)c1ccc(NC(C)=O)cc1S(=O)(=O)NC(=O)Nc1nc(OC)cc(OC)n1 [A1, N-(4,6-Dimethoxypyrimidin-2-ylaminocarbonyl)-2-methoxycarbonyl-5-acetylaminobenzenesulfonamide]	–	–	–	–	–	–	–	–	–	–	–	–	–	–	–	–	–	–	80	50	Phytotoxicity Barley (Barley; dose A 10 g AS/ha): 50%; Phytotoxicity Wheat (Wheat; dose A 10 g AS/ha): 25%

From US8901036B2, “Combinations of phenylsulfonylurea herbicides and safeners” (Bayer Cropscience AG, priority 1994, dated 2014)
